In ChEMBL document CHEMBL4376904, “Bifunctional Pyrimidines as Modulators of Focal Adhesion Kinase” (ACS Med Chem Lett, 2020):

Experiments:
[1] = species: Homo sapiens; test: Protac activity at E3 Ubiquitin-protein ligase/Focal adhesion kinase in human PC3 cells assessed as induction of FAK protein degradation by immunoblotting analysis relative to control; assay type: cell-based
[2] = cells; settings: Homo sapiens, PC-3

| DC50 [2] [nM] | Compound | Emax [1] [%] |
| --- | --- | --- |
|  | Cc1ncsc1-c1ccc(CNC(=O)[C@@H]2C[C@@H](O)CN2C(=O)[C@@H](NC(=O)CCOCCOCCOc2ccc(Nc3ncc(C(F)(F)F)c(NCc4cccc(N(C)S(C)(=O)=O)c4)n3)cc2)C(C)(C)C)cc1 | 99 |
|  | Cc1ncsc1-c1ccc(CNC(=O)[C@@H]2C[C@@H](O)CN2C(=O)[C@@H](NC(=O)COCCOc2ccc(Nc3ncc(C(F)(F)F)c(NCc4cccc(N(C)S(C)(=O)=O)c4)n3)cc2)C(C)(C)C)cc1 | 99 |
|  | Cc1ncsc1-c1ccc(CNC(=O)[C@@H]2C[C@@H](O)CN2C(=O)[C@@H](NC(=O)COCCCOc2ccc(Nc3ncc(C(F)(F)F)c(NCc4cccc(N(C)S(C)(=O)=O)c4)n3)cc2)C(C)(C)C)cc1 | 99 |
|  | CNC(=O)c1ccc(Nc2ncc(C(F)(F)F)c(NCc3nccnc3N(C)S(C)(=O)=O)n2)cc1 | 0 |
|  | CN(c1cccc(CNc2nc(Nc3ccc(OCCOCCOCCOCCOCCC(=O)NCCOc4cccc5c4C(=O)N(C4CCC(=O)NC4=O)C5=O)cc3)ncc2C(F)(F)F)c1)S(C)(=O)=O (stereo unspecified) | 87 |
|  | CN(c1cccc(CNc2nc(Nc3ccc(OCCCOCCC(=O)NCCOc4cccc5c4C(=O)N(C4CCC(=O)NC4=O)C5=O)cc3)ncc2C(F)(F)F)c1)S(C)(=O)=O (stereo unspecified) | 99 |
| 26.7 | CN(c1cccc(CNc2nc(Nc3ccc(OCCOCCOCCC(=O)NCCOc4cccc5c4C(=O)N(C4CCC(=O)NC4=O)C5=O)cc3)ncc2C(F)(F)F)c1)S(C)(=O)=O (stereo unspecified) | 99 |
|  | Cc1ncsc1-c1ccc(CNC(=O)[C@@H]2C[C@@H](O)CN2C(=O)[C@@H](NC(=O)CCOCCCOc2ccc(Nc3ncc(C(F)(F)F)c(NCc4cccc(N(C)S(C)(=O)=O)c4)n3)cc2)C(C)(C)C)cc1 | 99 |
| 3.3 | Cc1ncsc1-c1ccc(CNC(=O)[C@@H]2C[C@@H](O)CN2C(=O)[C@@H](NC(=O)CCOCCOc2ccc(Nc3ncc(C(F)(F)F)c(NCc4cccc(N(C)S(C)(=O)=O)c4)n3)cc2)C(C)(C)C)cc1 | 99 |
